Laboratory results taken from patent US20110171136A1, “OPTICAL IMAGING PROBES” (priority 2002, published 2011).

System: A431 cells
Assay: in vitro uptake competition experiments with glucose
Assay type: cell-based, human
Conditions: 1 mM (monovalent) or 0.7 mM (bivalent) probe, 30 minutes, 50 and 100 mM glucose respectively, FIGS. 3B and 3D
Method: The A431 cell line was obtained from the American Type Culture Collection and grown in DMEM with 4.5 g/l glucose, supplemented with 10% fetal bovine serum (Life Technologies, NY) and cultured in a humidified atmosphere containing 5% CO2 and 95% air at 37° C.
Utilizing the monovalent and bivalent Cy5.5-conjugated glucose probes, in vitro uptake competition experiments were performed by incubating A431 cells with 1 mM (monovalent) or 0.7 mM (bivalent) of each probe, for 30 minutes, in the presence of 50 and 100 mM glucose, respectively. After removal of the medium, cells were rinsed with ice-cold PBS and visualized under confocal microscopy. […] Under the same conditions, free Cy5.5 uptake by A431 cells was not inhibited by incubation with glucose.

CCN1\C(=C/C=C/C=C/C2=[N+](CCCCCC(=O)O)c3ccc4c(S(=O)(=O)O)cc(S(=O)(=O)O)cc4c3C2(C)C)C(C)(C)c2c1ccc1c(S(=O)(=O)[O-])cc(S(=O)(=O)O)cc21 [free Cy5.5]
inhibition of cellular uptake of probe by glucose: not inhibited
